Earlier results on two molecules are cited in US8968799B2, “Time delayed release mechanism for energizing composition and method of use” (Rise-N-Shine L.L.C., priority 2006, dated 2015).

For data set [1] the following is noted: cold, fatigue, sleep deprivation.
The conditions of data set [2]: particularly as methylcobalamin; healthy men and women.

In the case of `N[C@@H](Cc1ccc(O)cc1)C(=O)O` [Tyrosine, 4-hydroxyphenylalanine], the “effect on cognitive performance and mood under acute stress” value in data set [1] is on record as “appears to prevent the substantial decline”.
In the case of `C/C1=C2/[N-][C@H]([C@H](CC(N)=O)[C@@]2(C)CCC(=O)NC[C@@H](C)OP(=O)([O-])O[C@H]2[C@@H](O)[C@@H](n3cnc4cc(C)c(C)cc43)O[C@@H]2CO)[C@]2(C)N=C(/C(C)=C3N=C(/C=C4N=C1[C@@H](CCC(N)=O)C\4(C)C)[C@@H](CCC(N)=O)[C@]\3(C)CC(N)=O)[C@@H](CCC(N)=O)[C@]2(C)CC(N)=O.[CH3-].[Co+3]` [vitamin B12, methylcobalamin], the “effect on sleep time, sleep quality and daytime alertness” value in data set [2] is “decrease sleep time yet improve sleep quality and daytime alertness”.
